By Ki is commonly meant a dissociation constant, usually derived from enzyme kinetics or from competition with a known ligand. The low end stands for a stronger hold on the target, the high end for a looser hold on the target.

Molecules are shown by their SMILES. *1 amine or outer side, *2 acyl side, *3 side chain or, on linkers, in order; H or OH if unused. Where a SMILES comes first, the peptide text is derived from it. [ ]: non-standard residue; d: D form. The star is where a group is joined. X1 = O=C1[C@@H](CCC(=O)[*:2])CCC[C@H]1N[*:1]; Met(O2) = CS(=O)(=O)CC[C@H](N)C(=O)O; Cbz = O=C(OCc1ccccc1)*

Results on 15 compounds are retold here after ChEMBL document CHEMBL2016561 (J Med Chem, 2012).

The target in assay [1] is Vitamin K-dependent protein C (Homo sapiens, UniProt P04070). Kind of assay: Inhibition of activated protein C by dixon plot method.
The next assay deals with Prothrombin (Homo sapiens, UniProt P00734). Briefly: Inhibition of thrombin by dixon plot method.
Another assay deals with Plasma kallikrein (Homo sapiens, UniProt P03952). Briefly: Inhibition of plasma kallikrein by dixon plot method.
The target in a further assay is Plasminogen (Homo sapiens, UniProt P00747). Briefly: Inhibition of plasmin by dixon plot method.
The next assay addresses Coagulation factor X (Homo sapiens, UniProt P00742). Briefly: Inhibition of factor 10a by dixon plot method.

Chain of Plasminogen (P00747 97-580 limits assumed): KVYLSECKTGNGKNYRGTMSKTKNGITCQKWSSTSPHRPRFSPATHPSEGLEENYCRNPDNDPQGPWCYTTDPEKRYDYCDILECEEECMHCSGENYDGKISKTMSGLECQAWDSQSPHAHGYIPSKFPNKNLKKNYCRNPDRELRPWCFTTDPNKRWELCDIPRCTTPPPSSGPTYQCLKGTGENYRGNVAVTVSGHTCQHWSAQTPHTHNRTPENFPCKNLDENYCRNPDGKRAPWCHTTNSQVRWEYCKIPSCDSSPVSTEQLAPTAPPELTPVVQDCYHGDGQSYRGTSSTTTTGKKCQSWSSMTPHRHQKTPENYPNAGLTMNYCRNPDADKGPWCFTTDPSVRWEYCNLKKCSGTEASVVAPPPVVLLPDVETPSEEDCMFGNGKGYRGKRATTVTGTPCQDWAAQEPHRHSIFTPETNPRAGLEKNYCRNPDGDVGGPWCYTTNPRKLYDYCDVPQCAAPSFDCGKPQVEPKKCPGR
Chain of Plasminogen (P00747 581-810 limits assumed): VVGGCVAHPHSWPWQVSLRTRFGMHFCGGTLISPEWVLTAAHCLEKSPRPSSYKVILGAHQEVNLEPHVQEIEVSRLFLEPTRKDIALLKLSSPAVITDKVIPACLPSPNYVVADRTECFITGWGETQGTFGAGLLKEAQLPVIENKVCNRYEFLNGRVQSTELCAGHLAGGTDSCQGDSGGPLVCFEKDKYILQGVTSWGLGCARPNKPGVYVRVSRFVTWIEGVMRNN
Chain of Plasma kallikrein (P03952 20-390 limits assumed): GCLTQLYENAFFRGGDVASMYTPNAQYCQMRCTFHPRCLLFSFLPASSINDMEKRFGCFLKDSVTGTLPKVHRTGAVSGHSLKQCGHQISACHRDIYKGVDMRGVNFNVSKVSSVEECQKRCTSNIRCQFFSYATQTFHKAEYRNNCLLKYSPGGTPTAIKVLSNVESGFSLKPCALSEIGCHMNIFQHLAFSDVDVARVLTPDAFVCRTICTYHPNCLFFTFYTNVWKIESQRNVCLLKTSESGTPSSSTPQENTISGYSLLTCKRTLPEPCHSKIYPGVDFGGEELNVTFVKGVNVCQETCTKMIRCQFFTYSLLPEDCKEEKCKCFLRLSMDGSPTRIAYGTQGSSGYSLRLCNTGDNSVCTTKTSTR
Chain of Plasma kallikrein (P03952 391-638 limits assumed): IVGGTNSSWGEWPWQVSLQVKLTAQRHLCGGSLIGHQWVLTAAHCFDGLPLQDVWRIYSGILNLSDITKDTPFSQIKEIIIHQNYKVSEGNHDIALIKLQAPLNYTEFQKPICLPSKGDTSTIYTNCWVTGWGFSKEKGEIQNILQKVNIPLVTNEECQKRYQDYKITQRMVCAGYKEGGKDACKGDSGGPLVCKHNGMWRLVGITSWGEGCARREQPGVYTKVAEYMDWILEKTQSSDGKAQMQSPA
Chain of Vitamin K-dependent protein C (P04070 43-197 limits assumed): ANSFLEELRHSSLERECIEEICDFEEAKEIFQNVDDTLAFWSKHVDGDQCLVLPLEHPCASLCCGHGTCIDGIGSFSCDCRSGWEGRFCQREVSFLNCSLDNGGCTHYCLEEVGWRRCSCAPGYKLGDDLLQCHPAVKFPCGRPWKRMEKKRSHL
Chain of Vitamin K-dependent protein C (P04070 212-461 limits assumed): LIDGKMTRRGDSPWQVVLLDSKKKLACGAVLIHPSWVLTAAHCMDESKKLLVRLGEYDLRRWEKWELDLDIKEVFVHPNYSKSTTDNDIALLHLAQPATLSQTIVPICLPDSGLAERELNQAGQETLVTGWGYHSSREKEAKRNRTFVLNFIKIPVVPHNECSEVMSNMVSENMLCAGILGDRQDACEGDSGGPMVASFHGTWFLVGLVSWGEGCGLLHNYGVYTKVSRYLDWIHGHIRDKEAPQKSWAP
Chain of Coagulation factor X (P00742 41-179 limits assumed): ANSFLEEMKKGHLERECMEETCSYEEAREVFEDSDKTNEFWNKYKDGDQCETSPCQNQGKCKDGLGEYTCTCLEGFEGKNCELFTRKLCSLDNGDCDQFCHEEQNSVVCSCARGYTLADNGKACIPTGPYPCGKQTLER
Chain of Coagulation factor X (P00742 235-488 limits assumed): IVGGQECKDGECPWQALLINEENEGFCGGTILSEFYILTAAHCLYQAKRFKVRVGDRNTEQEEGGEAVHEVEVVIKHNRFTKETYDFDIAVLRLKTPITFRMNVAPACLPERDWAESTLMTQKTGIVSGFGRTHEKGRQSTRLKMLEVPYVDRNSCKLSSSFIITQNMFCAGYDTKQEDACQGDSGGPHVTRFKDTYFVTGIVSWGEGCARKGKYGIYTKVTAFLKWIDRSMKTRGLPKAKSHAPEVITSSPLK

On to `N=C(N)c1ccc(CNC(=O)[C@@H]2Cc3ccc(cc3)CNC(=O)Cc3ccc(cc3)CC(=O)NCc3ccc(cc3)C[C@@H](NS(=O)(=O)Cc3ccccc3)C(=O)N2)cc1`, for which the Ki in assay [1] worked out at 12000 nM; on Prothrombin it was 6520 nM.
Regarding `N=C(N)NCc1cccc(C[C@H](NC(=O)[C@@H](CCCc2ccccc2)NS(=O)(=O)Cc2cccc(C(=O)O)c2)C(=O)NCc2ccc(C(=N)N)cc2)c1`, the inhibition constant (Ki) was 0.075 nM on Plasma kallikrein; 0.61 nM in assay [1]; 0.81 nM at Plasminogen; 667 nM at Prothrombin; 42 nM at Coagulation factor X.
As for `N=C(N)c1ccc(CNC(=O)[C@@H]2CCC(=O)NCc3cccc(c3)CNC(=O)CC[C@@H](NS(=O)(=O)Cc3ccccc3)C(=O)N2)cc1`, the results for the Ki (in assay [1]; on Prothrombin) were 5.1 nM and 2020 nM, respectively.
For `N=C(N)c1ccc(CNC(=O)[C@@H]2Cc3ccc(cc3)CNC(=O)CN3CCN(CC3)CC(=O)NCc3ccc(cc3)C[C@@H](NS(=O)(=O)Cc3ccccc3)C(=O)N2)cc1` the same measures were 3510 nM and 3520 nM.
The matching figures for `N=C(N)c1ccc(CNC(=O)[C@@H]2Cc3cccc(c3)CNC(=O)Cc3ccc(cc3)CC(=O)NCc3cccc(c3)C[C@@H](NS(=O)(=O)Cc3ccccc3)C(=O)N2)cc1`: 564 nM and 45.4 nM.
Regarding `N=C(N)c1ccc(CNC(=O)[C@@H]2Cc3cccc(c3)CNC(=O)CN3CCN(CC3)CC(=O)NCc3cccc(c3)C[C@@H](NS(=O)(=O)Cc3ccccc3)C(=O)N2)cc1`, the inhibition constant Ki at Plasma kallikrein is 25.3 nM; in assay [1], 48 nM; on Prothrombin it was 7.2 nM; at Coagulation factor X it was 21 nM.
As to `N=C(N)c1ccc(CNC(=O)[C@@H]2Cc3cccc(c3)CNC(=O)Cc3cccc(c3)CC(=O)NCc3cccc(c3)C[C@@H](NS(=O)(=O)Cc3ccccc3)C(=O)N2)cc1`, the Ki in assay [1] was 223 nM; on Prothrombin, 26.8 nM.
Turning to `N=C(N)c1ccc(CNC(=O)[C@@H]2Cc3ccc(cc3)OCCCCOc3ccc(cc3)C[C@@H](NS(=O)(=O)Cc3ccccc3)C(=O)N2)cc1`, the Ki on Plasma kallikrein came out at 19 nM; in assay [1], 4590 nM; on Plasminogen, 1.1 nM; on Prothrombin, 510 nM; on Coagulation factor X, 784 nM.
For the compound `N=C(N)c1ccc(CNC(=O)[C@@H]2Cc3cn(nn3)Cc3cccc(c3)Cn3cc(nn3)C[C@@H](NS(=O)(=O)Cc3ccccc3)C(=O)N2)cc1`, the Ki in assay [1] was 3000 nM; at Prothrombin, 9490 nM.
For `N=C(N)c1ccc(CNC(=O)[C@@H]2Cc3cn(nn3)Cc3cccc(n3)Cn3cc(nn3)C[C@@H](NS(=O)(=O)Cc3ccccc3)C(=O)N2)cc1`, the Ki in assay [1] was determined as 8390 nM; on Prothrombin, 6170 nM.
In the case of `N=C(N)c1ccc(CNC(=O)[C@@H]2Cc3cn(nn3)Cc3cccc([n+]3[O-])Cn3cc(nn3)C[C@@H](NS(=O)(=O)Cc3ccccc3)C(=O)N2)cc1`, the inhibitory constant (Ki) on Plasma kallikrein is 67 nM; in assay [1] it was above 6000 nM; at Plasminogen it was 8.9 nM; on Prothrombin, 1180 nM; on Coagulation factor X it was 3120 nM.
`CCCCCCCCNC(=O)[C@@H](Cc1ccc(OCc2ccncc2)cc1)NC(=O)[C@H]1CC[C@H](CN)CC1` came in with a Ki at Plasminogen of 530 nM.
On the same count and under the same terms, the result for `CC(=O)N[C@@H](CCCNC(=N)N)C(=O)N[C@@H](CCS(C)(=O)=O)C(=O)N[C@@H](Cc1ccc(O)cc1)C(=O)N[C@H](C=O)CCCNC(=N)N` (Ac-R[Met(O2)]YR-aldehyde) reads 3.08 nM; that for `O=C(CC[C@H]1CCC[C@@H](NC(=O)[C@H](Cc2c[nH]c3ccccc23)NC(=O)[C@H](Cc2c[nH]c3ccccc23)NC(=O)OCc2ccccc2)C1=O)N[C@@H](Cc1c[nH]c2ccccc12)C(=O)N[C@@H](Cc1ccc(O)cc1)C(=O)O` (Cbz-WW[X1]WY-OH), 2700 nM.
Regarding `N=C(N)c1ccc(CNC(=O)[C@@H]2Cc3ccc(cc3)OCC=CCOc3ccc(cc3)C[C@@H](NS(=O)(=O)Cc3ccccc3)C(=O)N2)cc1` (mixture of isomers), the Ki in assay [1] stood at 90 nM; at Prothrombin, 137 nM.
